Measurements: article PMC6710338, “Turning a Collagenesis-Inducing Peptide Into a Potent Antibacterial and Antibiofilm Agent Against Multidrug-Resistant Gram-Negative Bacteria” (Frontiers in Microbiology, 2019)
Peptide text beside a SMILES is read from it.

Tests used:
[1] = system: S. aureus ATCC 25923; assay: MIC, broth microdilution (CLSI), ATCC reference strain; type: cell-based, Staphylococcus aureus
Experimental: (§1) The minimum inhibitory concentration (MIC) of synthetic peptides was determined using the broth microdilution method in cation-adjusted Mueller-Hinton broth (MHB2 – Sigma-Aldrich, St. Louis, MO, United States), according to the recommendations of the Clinical and Laboratory Standards Institute ([CLSI, 2012]), against four reference strains, namely, P. aeruginosa ATCC 27853, E. coli ATCC 25922, S. aureus ATCC 25923 and Enterococcus faecalis ATCC 29212. MIC values of peptide 3.1-PP4 were also determined against MDR clinical isolates of P. aeruginosa (PA002, PA004, Pa3, Pa4), E. coli (Ec1, Ec2, EC001, EC002, EC003) and K. pneumoniae (KP004, KP007, KP010). The peptides were tested in the concentration range of 1–1024 μg/mL. The minimum bactericidal concentration (MBC) was determined as previously reported ([Bessa et al., 2018]). According to CLSI guidelines for antimicrobial susceptibility testing, MIC values were determined for all peptides against ATCC reference strains of two Gram-positive (S. aureus ATCC 25923 and E. faecalis ATCC 29212), and two Gram-negative (P. aeruginosa ATCC 27853 and E. coli ATCC 25922) bacterial species, and are shown in Table 2.

[2] = system: E. faecalis ATCC 29212; assay: as above; type: cell-based, Enterococcus faecalis
Experimental: as §1

[3] = system: HFF-1 cells; type: cell-based, human; conditions: 72 h
Experimental: Immortalized human foreskin fibroblasts (HFF-1) were grown as a monolayer from passage number 8–16. For routine maintenance, HFF-1 cells were cultured in Dulbecco’s Modified Eagle Medium (DMEM, from Cell Lines Service) supplemented with 15% fetal bovine serum (FBS, from CLS) and 1% antibiotic/antimycotic solution (100 units/mL of penicillin, 100 μg/mL of streptomycin and 0.25 μg/mL of amphotericin B, from Sigma-Aldrich, St. Louis, MO, United States) at 37°C in an humidified atmosphere with 5% CO2. Cells were harvested by trypsinization [0.25% (w/v) trypsin-EDTA4Na, Sigma-Aldrich, St. Louis, MO, United States] twice a week.
The cytotoxicity of synthetic peptides to HFF-1 cells was evaluated using the standard MTT assay. Briefly, cells were seeded at a density of 8 × 10^4 cells/well onto 96-well plate and incubated at 37°C in a 5% CO2 atmosphere. Cells were allowed to grow for 48 h, and serially diluted peptide solutions (0.78–100 μM) were added to the wells. Then, cells were incubated for 72 h at 37°C, after which wells were washed once with phosphate buffered saline (PBS, Sigma-Aldrich, St. Louis, MO, United States), followed by addition of a 0.45 mg/mL MTT solution to each well. Crystals were allowed to form for 1.5 h. Reaction was stopped by rejecting the medium and addition of dimethylsulfoxide (DMSO, Sigma-Aldrich, St. Louis, MO, United States). Absorbance was read at 570 nm (Biotek PowerWave XS).
At the end of the cytotoxicity assays, the number of viable cells was never below that of initially plated cells. As such, data are represented as peptide concentrations causing 50% growth inhibition (IC50) on HFF-1 cells, rather than as lethal dosis values. IC50 values thus obtained are also included in Table 2.

[4] = system: preformed biofilms of MDR P. aeruginosa isolates; assay: Effect on 24 h preformed biofilms (OD600 of planktonic phase); type: cell-based, Pseudomonas aeruginosa; conditions: 20 × MIC, vs non-treated biofilm
Experimental: The efficacy of peptide 3.1-PP4 on 24 h preformed biofilms of PA002, PA004, KP004, KP007, and KP010 was also evaluated ([Gomes et al., 2014]). Briefly, biofilms were grown in TSB from a starting inoculum of 1 × 10^6 CFU/mL in 96-well microtiter plates. […] The optical density at 600 nm (OD600) was measured at time 0 and after incubation for 24 h at 37°C. The reduction in the biofilm proliferation was calculated in comparison to the respective non-treated biofilms. Two independent experiments were performed in triplicate.
In the case of control biofilms, the second 24 h growth period occurred in the absence of the peptide. Based on the apparent higher efficiency of peptide 3.1-PP4 to inhibit the formation of K. pneumoniae than P. aeruginosa biofilms, only two MDR isolates of the latter were included in this assay, whereas three MDR K. pneumoniae were tested. Optical density of the planktonic phase, as a measure of biofilm proliferation, was reduced in all peptide-treated biofilms, ranging from 3 to 21% reduction on P. aeruginosa isolates, and from 34 to 56% reduction on K. pneumoniae isolates (Table 4).

[5] = system: preformed biofilm of MDR P. aeruginosa PA004; assay: Biofilm metabolic activity (MTT); type: cell-based, Pseudomonas aeruginosa; conditions: isolate PA004, 24 h preformed biofilm, 20 × MIC, 24 h at 37°C, absorbance 570 nm
Experimental: The respective control biofilms were equally formed but in absence of the peptide (only TSB medium was used). Afterward, the bacterial metabolic activity of biofilms was quantified after adding 3-(4,5-dimethylthiazole-2-yl)-2,5-diphenyl tetrazolium bromide (MTT, 0.5 mg/mL – Sigma-Aldrich, St. Louis, MO, United States) for 3 h at 37°C in the dark. DMSO was used to dissolve the formazan crystals formed and the absorbance at 570 nm was measured. Two independent experiments were performed in four replicates.
The influence of the peptide on the metabolic activity of preformed biofilms of one P. aeruginosa (PA004) and three K. pneumoniae (KP004, KP007, and KP010) isolates was also assessed, through a standard MTT assay.

Work on `CC(C)C[C@H](NC(=O)[C@H](Cc1c[nH]c2ccccc12)NC(=O)[C@H](CCCCN)NC(=O)[C@H](CC(C)C)NC(=O)[C@H](CC(C)C)NC(=O)[C@H](CCCCN)NC(=O)[C@@H](N)CCCCN)C(=O)N[C@@H](CC(C)C)C(=O)N[C@@H](CCCCN)C(=O)N[C@@H](CC(C)C)C(=O)N[C@@H](CC(C)C)C(=O)N[C@@H](CCCCN)C(=O)N[C@H](C(=O)N[C@H](C(=O)N[C@@H](CCCCN)C(=O)N[C@@H](CO)C(N)=O)[C@@H](C)O)[C@@H](C)O` [Peptide 3.1-PP4] (H-KKLLKWLLKLLKTTKS-NH2; N-terminus assumed) yielded an MIC ([1]; ATCC 25923) of 16 µM, an MIC ([1]; S. aureus ATCC 25923, broth microdilution in MHB2, CLSI, range tested 1–1024 μg/mL) of 32 µg/mL and an MIC ([2]; ATCC 29212) of 33 µM. For the same molecule, the MIC ([2]; E. faecalis ATCC 29212, broth microdilution in MHB2, CLSI, range tested 1–1024 μg/mL) was 64 µg/mL, the IC50 [3] was 69 ± 5 µM and the “% reduction in biofilm proliferation upon treatment” value ([4]; isolate PA002, 24 h preformed biofilm) was 2.8%. For the same molecule, the “% reduction in biofilm proliferation upon treatment” value ([4]; isolate PA004, 24 h preformed biofilm) was 21% and the “% reduction of metabolic activity in peptide-treated biofilms” value [5] was 8.3%.
